Source: ChEMBL document CHEMBL1201862, “PubChem BioAssay data set” (2004)
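Test compounds were applied to cells in 96-well plates for 48 hours at 5 doses. The concentration for 50% growth inhibition is given as GI50.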 Calls of active or inactive are those of the source. No stated cut-off is given here; in the data, active = GI50 up to about 1.1 µM and inactive = higher.

Legend:
Assay in all cases: NCI tumour cell line growth inhibition, 48 h
ACHN = tested on: ACHN
IGROV-1 = tested on: IGROV-1
UACC-62 = tested on: UACC-62
SNB-75 = tested on: SNB-75
COLO 205 = tested on: COLO 205
RXF 393 = tested on: RXF 393
MOLT-4 = tested on: MOLT-4
UACC-257 = tested on: UACC-257
SR = tested on: SR
SF-539 = tested on: SF-539
SK-MEL-5 = tested on: SK-MEL-5
HL-60 = tested on: HL-60
HCT-15 = tested on: HCT-15
HOP-62 = tested on: HOP-62
HCT-116 = tested on: HCT-116
SN12C = tested on: SN12C
SF-295 = tested on: SF-295
NCI-H522 = tested on: NCI-H522
NCI-H226 = tested on: NCI-H226
A498 = tested on: A498

| Compound | GI50 (ACHN) | GI50 (IGROV-1) | GI50 (UACC-62) | GI50 (SNB-75) | GI50 (COLO 205) | GI50 (RXF 393) | GI50 (MOLT-4) | GI50 (UACC-257) | GI50 (SR) | GI50 (SF-539) | GI50 (SK-MEL-5) | GI50 (HL-60) | GI50 (HCT-15) [µM] | GI50 (HOP-62) | GI50 (HCT-116) | GI50 (SN12C) | GI50 (SF-295) | GI50 (NCI-H522) | GI50 (NCI-H226) | GI50 (A498) |
| --- | --- | --- | --- | --- | --- | --- | --- | --- | --- | --- | --- | --- | --- | --- | --- | --- | --- | --- | --- | --- |
| COc1ccc(C2=NN(c3nsc4ccccc34)C(=O)CC2)cc1 | > 100 µM (inactive) | 70.1 µM (inactive) | > 100 µM (inactive) | 84.3 µM (inactive) | > 100 µM (inactive) | > 100 µM (inactive) | 44 µM (inactive) | > 100 µM (inactive) | 49 µM (inactive) | > 100 µM (inactive) | 61.4 µM (inactive) | 39.4 µM (inactive) | 57.9 | > 100 µM (inactive) | 54.2 µM (inactive) | > 100 µM (inactive) | – | – | – | – |
| CCCCCCCCCCCCCCCCCC(=O)OCC(COC(=O)CCCN)OC(=O)CCCN (stereo not given) | > 100 µM (inactive) | 2.91 µM (inactive) | 18.2 µM (inactive) | > 100 µM (inactive) | 16.5 µM (inactive) | 15.1 µM (inactive) | 24.8 µM (inactive) | 19.6 µM (inactive) | 23.6 µM (inactive) | 18.2 µM (inactive) | – | 54.2 µM (inactive) | 23.7 | 17.4 µM (inactive) | 19.5 µM (inactive) | 17.8 µM (inactive) | 19.4 µM (inactive) | 21 µM (inactive) | 20.6 µM (inactive) | – |
| O=C1/C(=C/c2ccccc2)NC(=S)N1CN1CCOCC1 | > 100 µM (inactive) | > 100 µM (inactive) | > 100 µM (inactive) | > 100 µM (inactive) | > 100 µM (inactive) | – | > 100 µM (inactive) | > 100 µM (inactive) | > 100 µM (inactive) | – | > 100 µM (inactive) | – | > 100 | > 100 µM (inactive) | > 100 µM (inactive) | > 100 µM (inactive) | > 100 µM (inactive) | – | > 100 µM (inactive) | 82.2 µM (inactive) |
| CC(C)(C)[Si](OC1CCOC1=O)(c1ccccc1)c1ccccc1 (stereo not given) | 19.1 µM (inactive) | 15.7 µM (inactive) | 13.9 µM (inactive) | 23.6 µM (inactive) | > 10 µM (inactive) | – | 17.5 µM (inactive) | 17.1 µM (inactive) | > 10 µM (inactive) | 23.4 µM (inactive) | 13.4 µM (inactive) | 14.4 µM (inactive) | 18.5 | – | 13.6 µM (inactive) | 17.1 µM (inactive) | 16 µM (inactive) | 13.8 µM (inactive) | – | 25.3 µM (inactive) |
| NC(=O)c1csc(C2O[C@@H](COP(=O)(O)OP(=O)(O)OC[C@H]3OC(n4cnc5c(N)ncnc54)[C@H](O)[C@@H]3O)[C@H](O)[C@@H]2O)n1 (stereo not given in full) | > 100 µM (inactive) | > 100 µM (inactive) | 72.1 µM (inactive) | 45 µM (inactive) | > 100 µM (inactive) | – | 59.2 µM (inactive) | 66.8 µM (inactive) | – | 52 µM (inactive) | > 100 µM (inactive) | 67.3 µM (inactive) | > 100 | > 100 µM (inactive) | – | > 100 µM (inactive) | 30 µM (inactive) | 52.8 µM (inactive) | > 100 µM (inactive) | > 100 µM (inactive) |
| CC(C(=O)n1nnc2ccccc21)N(c1ccccc1)c1ccccc1 (stereo not given) | > 100 µM (inactive) | > 100 µM (inactive) | > 100 µM (inactive) | 69.5 µM (inactive) | > 100 µM (inactive) | > 100 µM (inactive) | 99.5 µM (inactive) | 72.4 µM (inactive) | 78.3 µM (inactive) | > 100 µM (inactive) | 42.9 µM (inactive) | 45.1 µM (inactive) | > 100 | > 100 µM (inactive) | 89.5 µM (inactive) | > 100 µM (inactive) | > 100 µM (inactive) | 45.5 µM (inactive) | 87.7 µM (inactive) | – |
| COc1ccc(C2CC(c3sc(Nc4ccc(C)cc4)nc3C)=NN2)cc1 (stereo not given) | – | > 40.8 µM (inactive) | 40 µM (inactive) | 14.8 µM (inactive) | 13.7 µM (inactive) | 13.2 µM (inactive) | 8.34 µM (inactive) | 15.8 µM (inactive) | – | 15.4 µM (inactive) | 16 µM (inactive) | 7.64 µM (inactive) | 15.1 | 20.7 µM (inactive) | 6.46 µM (inactive) | 14.1 µM (inactive) | 15 µM (inactive) | 15.3 µM (inactive) | 16.6 µM (inactive) | 15.4 µM (inactive) |
| Cc1cc(O)c(C(c2cccnc2)c2c(O)cc(C)[nH]c2=O)c(=O)[nH]1 | > 100 µM (inactive) | > 100 µM (inactive) | > 100 µM (inactive) | – | > 100 µM (inactive) | > 100 µM (inactive) | > 100 µM (inactive) | > 100 µM (inactive) | > 100 µM (inactive) | – | > 100 µM (inactive) | > 100 µM (inactive) | > 100 | > 100 µM (inactive) | > 100 µM (inactive) | > 100 µM (inactive) | > 100 µM (inactive) | > 100 µM (inactive) | – | – |
| C=C1CC(OC)(C(O)C(=O)N[C@H]2OCO[C@H]3C2O[C@H](C[C@@H](COC)OC)C(C)(C)C3OC)O[C@H](C)[C@@H]1C (stereo not given in full) | – | < 0.00482 µM (active) | < 0.00482 µM (active) | < 0.00482 µM (active) | < 0.00482 µM (active) | < 0.00482 µM (active) | < 0.00482 µM (active) | < 0.00482 µM (active) | – | < 0.00482 µM (active) | < 0.00482 µM (active) | < 0.00482 µM (active) | < 0.00482 | < 0.00482 µM (active) | < 0.00482 µM (active) | < 0.00482 µM (active) | < 0.00482 µM (active) | < 0.00482 µM (active) | < 0.00482 µM (active) | < 0.00482 µM (active) |
| NS(=O)(=O)c1cc2c(cc1Cl)NC(C(=O)NNC(=O)c1ccncc1)=NS2(=O)=O | > 100 µM (inactive) | > 100 µM (inactive) | > 100 µM (inactive) | > 100 µM (inactive) | > 100 µM (inactive) | > 100 µM (inactive) | > 100 µM (inactive) | > 100 µM (inactive) | > 100 µM (inactive) | > 100 µM (inactive) | > 100 µM (inactive) | > 100 µM (inactive) | > 100 | > 100 µM (inactive) | > 100 µM (inactive) | > 100 µM (inactive) | > 100 µM (inactive) | > 100 µM (inactive) | > 100 µM (inactive) | – |
| Cc1nc2cccc(F)c2c(=O)n1C1CCCCNC1=O (stereo not given) | > 10 µM (inactive) | > 10 µM (inactive) | > 10 µM (inactive) | > 10 µM (inactive) | > 10 µM (inactive) | > 10 µM (inactive) | > 10 µM (inactive) | > 10 µM (inactive) | > 10 µM (inactive) | > 10 µM (inactive) | > 10 µM (inactive) | > 10 µM (inactive) | > 10 | > 10 µM (inactive) | > 10 µM (inactive) | > 10 µM (inactive) | > 10 µM (inactive) | > 10 µM (inactive) | > 10 µM (inactive) | – |
| CCOC(=O)c1cc2c([N+](=O)[O-])c(NC(C)=O)ccc2s1 | 41.7 µM (inactive) | 72.9 µM (inactive) | 66.7 µM (inactive) | 19.3 µM (inactive) | 34.8 µM (inactive) | 20.2 µM (inactive) | 31.4 µM (inactive) | > 100 µM (inactive) | – | > 100 µM (inactive) | 39.4 µM (inactive) | 31.7 µM (inactive) | 86.9 | 90.2 µM (inactive) | 87.9 µM (inactive) | 92 µM (inactive) | 69.3 µM (inactive) | 34.2 µM (inactive) | 13.3 µM (inactive) | 29.9 µM (inactive) |
| CC(C)CC(NC(=O)OCc1ccccc1)C(=O)NCCCCC(N)C(=O)NC(CCCCNC(=O)C(CC(C)C)NC(=O)OCc1ccccc1)C(=O)NC(CCCCNC(=O)C(CC(C)C)NC(=O)OCc1ccccc1)C(=O)NC(CCCCNC(=O)C(CC(C)C)NC(=O)OCc1ccccc1)C(=O)NC(CCCCNC(=O)C(CC(C)C)NC(=O)OCc1ccccc1)C(=O)NC(CCCCNC(=O)C(CC(C)C)NC(=O)OCc1ccccc1)C(=O)O (stereo not given) | > 100 µM (inactive) | > 100 µM (inactive) | > 100 µM (inactive) | – | – | – | > 100 µM (inactive) | > 100 µM (inactive) | > 100 µM (inactive) | – | > 100 µM (inactive) | > 100 µM (inactive) | > 100 | > 100 µM (inactive) | > 100 µM (inactive) | > 100 µM (inactive) | – | > 100 µM (inactive) | > 100 µM (inactive) | > 100 µM (inactive) |
| CCOP(=Nc1ccc(N(C)C)cc1)(OCC)OCC | > 100 µM (inactive) | > 100 µM (inactive) | > 100 µM (inactive) | > 100 µM (inactive) | > 100 µM (inactive) | > 100 µM (inactive) | > 100 µM (inactive) | > 100 µM (inactive) | – | – | > 100 µM (inactive) | – | > 100 | > 100 µM (inactive) | > 100 µM (inactive) | – | > 100 µM (inactive) | > 100 µM (inactive) | – | > 100 µM (inactive) |
| NC(=O)c1ncn2c1NC(=O)CC2 | – | > 100 µM (inactive) | > 67.8 µM (inactive) | > 100 µM (inactive) | > 100 µM (inactive) | > 100 µM (inactive) | > 100 µM (inactive) | > 100 µM (inactive) | – | > 100 µM (inactive) | > 100 µM (inactive) | > 100 µM (inactive) | > 100 | > 100 µM (inactive) | > 100 µM (inactive) | > 100 µM (inactive) | > 100 µM (inactive) | > 100 µM (inactive) | > 100 µM (inactive) | > 100 µM (inactive) |
